Read-outs that look alike come from different tables or passages of the source.
Test system: HCV replicons (NS3-NS5B regions of HCV type Ib) in Huh-7 luc/neo cells
Assay: HCV replicon assay (Huh-Luc luciferase reporter)
Assay type: cell-based
Settings: Hepatitis C virus, Huh-7, 72 h
Procedure: The in vitro antiviral activity against HCV of the compounds of formula (I) was tested in a cellular HCV replicon system based on Lohmann et al. (1999) Science 285:110-113, with the further modifications described by Krieger et al. (2001) Journal of Virology 75: 4614-4624, which is further exemplified in the examples section. This model, while not a complete infection model for HCV, is widely accepted as the most robust and efficient model of autonomous HCV RNA replication currently available. […] It will be appreciated that it is important to distinguish between compounds that specifically interfere with HCV functions from those that exert cytotoxic or cytostatic effects in the HCV replicon model, and as a consequence cause a decrease in HCV RNA or linked reporter enzyme concentration. Assays are known in the field for the evaluation of cellular cytotoxicity based for example on the activity of mitochondrial enzymes using fluorogenic redox dyes such as resazurin. Furthermore, cellular counter screens exist for the evaluation of non-selective inhibition of linked reporter gene activity, such as firefly luciferase. Appropriate cell types can be equipped by stable transfection with a luciferase reporter gene whose expression is dependent on a constitutively active gene promoter, and such cells can be used as a counter-screen to eliminate non-selective inhibitors.
The compounds of formula (I) were examined for activity in the inhibition of HCV RNA replication in a cellular assay. […] The cellular assay was based on a bicistronic expression construct, as described by Lohmann et al. (1999) Science vol. 285 pp. 110-113 with modifications described by Krieger et al. (2001) Journal of Virology 75: 4614-4624, in a multi-target screening strategy. In essence, the method was as follows.
The assay utilized the stably transfected cell line Huh-7 luc/neo (hereafter referred to as Huh-Luc). This cell line harbors an RNA encoding a bicistronic expression construct comprising the wild type NS3-NS5B regions of HCV type Ib translated from an Internal Ribosome Entry Site (IRES) from encephalomyocarditis virus (EMCV), preceded by a reporter portion (FfL-luciferase), and a selectable marker portion (neo^R, neomycine phosphotransferase). The construct is bordered by 5′ and 3′ NTRs (non-translated regions) from HCV type Ib. Continued culture of the replicon cells in the presence of G418 (neo^R) is dependent on the replication of the HCV RNA. The stably transfected replicon cells that express HCV RNA, which replicates autonomously and to high levels, encoding inter alia luciferase, are used for screening the antiviral compounds.
The replicon cells were plated in 384 well plates in the presence of the test and control compounds which were added in various concentrations. Following an incubation of three days, HCV replication was measured by assaying luciferase activity (using standard luciferase assay substrates and reagents and a Perkin Elmer ViewLux™ ultraHTS microplate imager). Replicon cells in the control cultures have high luciferase expression in the absence of any inhibitor. The inhibitory activity of the compound on luciferase activity was monitored on the Huh-Luc cells, enabling a dose-response curve for each test compound.

[1] = Huh-Luc replicon cells, three days incubation, luciferase activity, read-out: EC50

| SMILES | EC50 [1] | EC50 |
| --- | --- | --- |
| COc1ccc2c(O[C@@H]3C[C@H]4C(=O)N[C@]5(C(=O)NS(=O)(=O)C6CC6)C[C@H]5/C=C\CCCCCCC(=O)N4C3)cc(-c3nccs3)nc2c1C [Compound 26, N-[18-[2-(thiazol-2-yl)-7-methoxy-8-methylquinolin-4-yloxy]-2,15-dioxo-3,16-diazatricyclo[14.3.0.0^4,6]nonadec-7-ene-4-carbonyl]-(cyclopropyl)sulfonamide] | 4 nM |  |
| COc1ccc2c(O[C@@H]3C[C@H]4C(=O)N[C@]5(C(=O)NS(=O)(=O)C6CC6)C[C@H]5/C=C\CCCCCCC(=O)N4C3)nc(-n3cccn3)cc2c1 [Compound 34, N-[18-[6-methoxy-3-(pyrazol-1-yl)isoquinolin-1-yloxy]-2,15-dioxo-3,16-diazatricyclo[14.3.0.0^4,6]nonadec-7-ene-4-carbonyl](cyclopropyl)-sulfonamide] | 40 nM |  |
| COc1ccc2c(O[C@@H]3C[C@H]4C(=O)N[C@]5(C(=O)O)C[C@H]5/C=C\CCCCCCC(=O)N4C3)cc(-c3nccs3)nc2c1Br [Compound 41, 18-[8-bromo-7-methoxy-2-(thiazol-2-yl)quinolin-4-yloxy]-2,15-dioxo-3,16-diazatricyclo[14.3.0.0^4,6]nonadec-7-ene-4-carboxylic acid] | 280 nM |  |
| COc1ccc2c(O[C@@H]3C[C@H]4C(=O)N[C@]5(C(=O)O)C[C@H]5/C=C\CCCCCCC(=O)N4C3)cc(-c3nc(C(C)C)cs3)nc2c1 [Compound 10, 18-[2-[4-(isopropyl)thiazol-2-yl]-7-methoxyquinolin-4-yloxy]-2,15-dioxo-3,16-diazatricyclo[14.3.0.0^4,6]nonadec-7-ene-4-carboxylic acid] | 5040 nM |  |
| COc1ccc2c(O[C@@H]3C[C@H]4C(=O)N[C@]5(C(=O)NS(=O)(=O)C6CC6)C[C@H]5/C=C\CCCCCC(=O)N4C3)cc(-c3nc(C(C)C)cs3)nc2c1 [Compound 63, N-[17-[2-(4-isopropylthiazol-2-yl)-7-methoxyquinolin-4-yloxy]-2,14-dioxo-3,15-diazatricyclo[13.3.0.0^4,6]octadec-7-ene-4-carbonyl]-(cyclopropyl)sulfonamide] | 24 nM |  |
| COc1ccc2c(O[C@@H]3C[C@H]4C(=O)N[C@]5(C(=O)NS(=O)(=O)C6CC6)C[C@H]5/C=C\CCCCCCC(=O)N4C3)cc(-c3cscn3)nc2c1 [Compound 36, N-[18-[7-methoxy-2-(thiazol-4-yl)quinolin-4-yloxy]-2,15-dioxo-3,16-diazatricyclo[14.3.0.0^4,6]nonadec-7-ene-4-carbonyl](cyclopropyl)-sulfonamide] | 4 nM |  |
| COc1ccc2c(O[C@@H]3C[C@H]4C(=O)N[C@]5(C(=O)NS(=O)(=O)C6CC6)C[C@H]5/C=C\CCCCCCC(=O)N4C3)cc(-c3nc(C(C)C)cs3)nc2c1C [Compound 30, N-[18-[2-(4-isopropylthiazol-2-yl)-7-methoxy-8-methylquinolin-4-yloxy]-2,15-dioxo-3,16-diazatricyclo[14.3.0.0^4,6]nonadec-7-ene-4-carbonyl](cyclopropyl)sulfonamide] | 6 nM |  |
| COc1ccc2c(O[C@@H]3C[C@H]4C(=O)N[C@]5(C(=O)O)C[C@H]5/C=C\CCCCCCC(=O)N4C3)cc(-c3nc(C(C)C)cs3)nc2c1C [Compound 29, 18-[2-(4-isopropylthiazol-2-yl)-7-methoxy-8-methylquinolin-4-yloxy]-2,15-dioxo-3,16-diazatricyclo[14.3.0.0^4,6]nonadec-7-ene-4-carboxylic acid] | 1960 nM |  |
| COc1ccc2c(O[C@@H]3C[C@H]4C(=O)N[C@]5(C(=O)O)C[C@H]5/C=C\CCCCCC(C)(C)C(=O)N4C3)cc(-c3nc(C(C)C)cs3)nc2c1Cl [Compound 54, 18-[8-chloro-2-(4-isopropylthiazol-2-yl)-7-methoxyquinolin-4-yloxy]-14,14-dimethyl-2,15-dioxo-3,16-diazatricyclo[14.3.0.0^4,6]nonadec-7-ene-4-carboxylic acid] |  | ≥ 10000 nM |
| COc1ccc2c(O[C@@H]3C[C@H]4C(=O)N[C@]5(C(=O)O)C[C@H]5/C=C\CCCCCCC(=O)N4C3)nc(-n3cccn3)cc2c1 [Compound 33, 18-[6-methoxy-3-(pyrazol-1-yl)isoquinolin-1-yloxy]-2,15-dioxo-3,16-diazatricyclo[14.3.0.0^4,6]nonadec-7-ene-4-carboxylic acid] | 6100 nM |  |
| COc1ccc2c(O[C@@H]3C[C@H]4C(=O)N[C@]5(C(=O)NS(=O)(=O)C6CC6)C[C@H]5/C=C\CCCCCC(C)(C)C(=O)N4C3)cc(-c3nc(C(C)C)cs3)nc2c1Cl [Compound 55, N-[18-[8-chloro-2-(4-isopropylthiazol-2-yl)-7-methoxyquinolin-4-yloxy]-14,14-dimethyl-2,15-dioxo-3,16-diazatricyclo[14.3.0.0^4,6]nonadec-7-ene-4-carbonyl](cyclopropyl)sulfonamide] | 198 nM |  |
| COc1ccc2c(O[C@@H]3C[C@H]4C(=O)N[C@]5(C(=O)NS(=O)(=O)C6CC6)C[C@H]5/C=C\CCCCCCC(=O)N4C3)cc(-c3csc(NC(C)C)n3)nc2c1 [Compound 13, N-[[18-[2-[2-(isopropylamino)thiazol-4-yl]-7-methoxyquinolin-4-yloxy]-2,15-dioxo-3,16-diazatricyclo[14.3.0.0^4,6]nonadec-7-en-4-yl]carbonyl](cyclopropyl)sulfonamide] | 20 nM |  |
| COc1ccc2c(O[C@@H]3C[C@H]4C(=O)N[C@]5(C(=O)NS(=O)(=O)C6(C)CC6)C[C@H]5/C=C\CCCCCC(=O)N4C3)cc(-c3nc(C(C)C)cs3)nc2c1Cl [Compound 61, N-[17-[8-chloro-2-(4-isopropylthiazol-2-yl)-7-methoxyquinolin-4-yloxy]-2,14-dioxo-3,15-diazatricyclo[13.3.0.0^4,6]octadec-7-ene-4-carbonyl]-(1-methylcyclopropyl)sulfonamide] | 1 nM |  |
| COc1ccc2c(O[C@@H]3C[C@H]4C(=O)N[C@]5(C(=O)NS(=O)(=O)C6CC6)C[C@H]5CCCCCCCC(=O)N4C3)cc(-c3nc(C(C)C)cs3)nc2c1 (stereo in doubt) [Compound 64, N-[17-[2-(4-isopropylthiazol-2-yl)-7-methoxyquinolin-4-yloxy]-2,14-dioxo-3,15-diazatricyclo[13.3.0.0^4,6]octadecane-4-carbonyl]-(cyclopropyl)sulfonamide] | 67 nM |  |
| COc1ccc2c(O[C@@H]3C[C@H]4C(=O)N[C@]5(C(=O)NS(=O)(=O)C6(C)CC6)C[C@H]5/C=C\CCCCCC(=O)N4C3)cc(-c3nc(C(C)C)cs3)nc2c1C [Compound 60, N-[17-[2-(4-isopropylthiazol-2-yl)-7-methoxy-8-methylquinolin-4-yloxy]-2,14-dioxo-3,15-diazatricyclo[13.3.0.0^4,6]octadec-7-ene-4-carbonyl]-(1-methylcyclopropyl)sulfonamide] | 14 nM |  |
| COc1ccc2c(O[C@@H]3C[C@H]4C(=O)N[C@]5(C(=O)O)C[C@H]5/C=C\CCCCCCC(=O)N4C3)cc(-c3csc(NC(C)C)n3)nc2c1 [Compound 12, 18-[2-[2-(isopropylamino)thiazol-4-yl]-7-methoxyquinolin-4-yloxy]-2,15-dioxo-3,16-diazatricyclo[14.3.0.0^4,6]nonadec-7-ene-4-carboxylic acid] | 1980 nM |  |
| COc1ccc2c(O[C@@H]3C[C@H]4C(=O)N[C@]5(C(=O)O)C[C@H]5/C=C\CCCCCC(=O)N4C3)cc(-c3nc(C(C)C)cs3)nc2c1Cl [Compound 56, 17-[8-chloro-2-(4-isopropylthiazol-2-yl)-7-methoxyquinolin-4-yloxy]-2,14-dioxo-3,15-diazatricyclo[13.3.0.0^4,6]octadec-7-ene-4-carboxylic acid] | 318 nM |  |
